Reference: patent US7951824B2, “4-aryl-pyridine-2-carboxyamide derivatives” (Hoffman-La Roche Inc., priority 2006, dated 2011)

Biological target: T1, human mGlu 5a receptor (Homo sapiens, UniProt P41594)
T1 construct: expressed in transfected cells; host or cells: EBNA cells (transient transfection), membrane homogenates
Experiment: [3H]MPEP competition binding on membranes of EBNA cells transfected with human mGlu 5a receptor
Details: competition with [3H]MPEP (2 nM), 1 h at 4° C., EBNA cell membranes
Procedure: The pharmacological activity of the compounds was tested using the following method: For binding experiments, cDNA encoding human mGlu 5a receptor was transiently transfected into EBNA cells using a procedure described by Schlaeger and Christensen [Cytotechnology 15:1-13 (1998)]. Cell membrane homogenates were stored at −80° C. until the day of assay where upon they were thawed and resuspended and polytronised in 15 mM Tris-HCl, 120 mM NaCl, 100 mM KCl, 25 mM CaCl2, 25 mM MgCl2 binding buffer at pH 7.4 to a final assay concentration of 20 μg protein/well.
Saturation isotherms were determined by addition of twelve [^3H] MPEP concentrations (0.04-100 nM) to these membranes (in a total volume of 200 μd) for 1 h at 4° C. Competition experiments were performed with a fixed concentration of [^3H]MPEP (2 nM) and IC50 values of test compounds evaluated using 11 concentrations (0.3-10,000 nM). Incubations were performed for 1 h at 4° C.
At the end of the incubation, membranes were filtered onto unifilter (96-well white microplate with bonded GF/C filter preincubated 1 h in 0.1% PEI in wash buffer, Packard Bio-Science, Meriden, Conn.) with a Filtermate 96 harvester (Packard BioScience) and washed 3 times with cold 50 mM Tris-HCl, pH 7.4 buffer. Nonspecific binding was measured in the presence of 10 μM MPEP. The radioactivity on the filter was counted (3 min) on a Packard Top-count microplate scintillation counter with quenching correction after addition of 45 μl of microscint 40 (Canberra Packard S. A., Zürich, Switzerland) and shaking for 20 min.
For binding experiments the Ki values of the compounds tested are given. The Ki value is defined by the following formula: KiIC50/[1+L/Kd] in which the IC50 values are those concentrations of the compounds tested which cause 50% inhibition of the competing radioligand ([^3H]MPEP). L is the concentration of radioligand used in the binding experiment and the Kd value of the radioligand is empirically determined for each batch of membranes prepared.

T1 sequence (P41594 21-1180 isoform P41594-2 limits assumed): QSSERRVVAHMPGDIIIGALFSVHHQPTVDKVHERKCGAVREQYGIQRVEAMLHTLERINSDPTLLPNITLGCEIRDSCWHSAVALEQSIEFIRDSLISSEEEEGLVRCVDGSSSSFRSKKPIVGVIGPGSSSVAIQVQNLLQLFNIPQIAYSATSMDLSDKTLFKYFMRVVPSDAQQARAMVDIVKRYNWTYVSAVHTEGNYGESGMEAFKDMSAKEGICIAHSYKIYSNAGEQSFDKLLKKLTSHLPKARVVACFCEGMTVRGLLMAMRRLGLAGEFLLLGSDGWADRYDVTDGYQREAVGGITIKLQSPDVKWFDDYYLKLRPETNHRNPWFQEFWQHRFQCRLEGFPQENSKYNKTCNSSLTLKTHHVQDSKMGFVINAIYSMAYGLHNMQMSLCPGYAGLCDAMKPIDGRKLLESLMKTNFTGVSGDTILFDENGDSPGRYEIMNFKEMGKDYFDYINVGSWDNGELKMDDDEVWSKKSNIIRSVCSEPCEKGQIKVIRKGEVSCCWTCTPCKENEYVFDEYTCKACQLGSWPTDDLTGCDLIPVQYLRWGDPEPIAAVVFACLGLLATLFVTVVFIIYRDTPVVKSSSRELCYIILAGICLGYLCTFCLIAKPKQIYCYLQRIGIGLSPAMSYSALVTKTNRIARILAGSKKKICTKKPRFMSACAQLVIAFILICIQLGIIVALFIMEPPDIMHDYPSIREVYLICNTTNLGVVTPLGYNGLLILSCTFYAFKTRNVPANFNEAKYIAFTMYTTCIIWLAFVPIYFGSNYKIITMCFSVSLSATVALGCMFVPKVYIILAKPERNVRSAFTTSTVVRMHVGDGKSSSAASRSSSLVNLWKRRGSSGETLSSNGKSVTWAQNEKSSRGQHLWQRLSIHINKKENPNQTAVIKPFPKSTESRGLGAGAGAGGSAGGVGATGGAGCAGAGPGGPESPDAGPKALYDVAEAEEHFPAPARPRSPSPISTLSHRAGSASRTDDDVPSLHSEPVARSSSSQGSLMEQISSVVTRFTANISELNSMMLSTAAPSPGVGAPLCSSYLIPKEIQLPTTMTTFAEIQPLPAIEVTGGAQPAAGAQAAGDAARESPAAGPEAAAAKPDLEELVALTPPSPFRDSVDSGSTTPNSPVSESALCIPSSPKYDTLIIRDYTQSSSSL

SMILES | Ki | Ki (head prints no unit)
Cc1cc(-c2ccc(F)cc2)cc(C(=O)Nc2nc(C)cs2)n1 [Example 27, 4-(4-Fluoro-phenyl)-6-methyl-pyridine-2-carboxylic acid (4-methyl-thiazol-2-yl)-amide] | 55 nM | 
Cc1cc(-c2ccc(F)cc2)cc(C(=O)Nc2ccnc(C)n2)n1 [Example 32, 4-(4-Fluoro-phenyl)-6-methyl-pyridine-2-carboxylic acid (2-methyl-pyrimidin-4-yl)-amide] | 501 nM | 
Cc1cc(-c2ccc(F)cc2)cc(C(=O)Nc2cccc(Cl)c2)n1 [Example 26, 4-(4-Fluoro-phenyl)-6-methyl-pyridine-2-carboxylic acid (3-chloro-phenyl)-amide] | 287 nM | 
COc1ccc(-c2cc(C)nc(C(=O)Nc3nc(C)cs3)c2)cc1 [Example 9, 4-(4-Methoxy-phenyl)-6-methyl-pyridine-2-carboxylic acid (4-methyl-thiazol-2-yl)-amide] |  | 1200 nM
Cc1cc(-c2ccc(F)cc2)c(C)c(C(=O)Nc2ccn(C)n2)n1 [Example 118, 4-(4-Fluoro-phenyl)-3,6-dimethyl-pyridine-2-carboxylic acid (1-methyl-1H-pyrazol-3-yl)-amide] | 714 nM | 
Cc1cc(-c2cncc(F)c2)cc(C(=O)Nc2ccc(Cl)cn2)n1 [Example 173, 5-Fluoro-6′-methyl-[3,4′]bipyridinyl-2′-carboxylic acid (5-chloro-pyridin-2-yl)-amide] | 33 nM | 
Cc1cc(-c2ccc(C#N)cc2)cc(C(=O)Nc2nc(C)cs2)n1 [Example 12, 4-(4-Cyano-phenyl)-6-methyl-pyridine-2-carboxylic acid (4-methyl-thiazol-2-yl)-amide] |  | 253 nM
Cc1cc(-c2ccc(F)cc2)cc(C(=O)Nc2ccc(F)cn2)n1 [Example 30, 4-(4-Fluoro-phenyl)-6-methyl-pyridine-2-carboxylic acid (5-fluoro-pyridin-2-yl)-amide] | 280 nM | 
Cc1cc(-c2cc(Cl)cc(Cl)c2)cc(C(=O)Nc2nc(C)cs2)n1 [Example 17, 4-(3,5-Dichloro-phenyl)-6-methyl-pyridine-2-carboxylic acid (4-methyl-thiazol-2-yl)-amide] |  | 2 nM
Cc1cc(-c2cccc(CO)c2)cc(C(=O)Nc2nc(C)cs2)n1 [Example 15, 4-(3-Hydroxymethyl-phenyl)-6-methyl-pyridine-2-carboxylic acid (4-methyl-thiazol-2-yl)-amide] |  | 17 nM
COc1cncc(-c2cc(C)nc(C(=O)Nc3csc(C)n3)c2)c1 [Example 56, 5-Methoxy-6′-methyl-[3,4′]bipyridinyl-2′-carboxylic acid (2-methyl-thiazol-4-yl)-amide] | 29 nM | 

More lines, now with the values ahead:

Ki | Ki (head prints no unit) | SMILES
221 nM |  | Cc1cc(-c2cc(F)cc(F)c2)nc(C(=O)Nc2ccnc(Cl)c2)n1 [Example 194, 4-(3,5-Difluoro-phenyl)-6-methyl-pyrimidine-2-carboxylic acid (2-chloro-pyridin-4-yl)-amide]
113 nM |  | Cc1nc(C(=O)Nc2ccnc(Cl)c2)cc(-c2cc(F)cc(F)c2)n1 [Example 36, 6-(3,5-Difluoro-phenyl)-2-methyl-pyrimidine-4-carboxylic acid (2-chloro-pyridin-4-yl)-amide]
36 nM |  | Cc1nc(C(=O)Nc2csc(C)n2)cc(-c2cc(F)cc(F)c2)n1 [Example 34, 6-(3,5-Difluoro-phenyl)-2-methyl-pyrimidine-4-carboxylic acid (2-methyl-thiazol-4-yl)-amide]
181 nM |  | Cc1cc(-c2cc(F)cc(F)c2)nc(C(=O)Nc2ccn(C)n2)n1 [Example 198, 4-(3,5-Difluoro-phenyl)-6-methyl-pyrimidine-2-carboxylic acid (1-methyl-1H-pyrazol-3-yl)-amide]
20 nM |  | Cc1cc(-c2cc(F)cc(F)c2)cc(C(=O)Nc2nc(CC#N)cs2)n1 [Example 163, 4-(3,5-Difluorophenyl)-6-methyl-pyridine-2-carboxylic acid (4-cyanomethyl-thiazol-2-yl)-amide]
59 nM |  | Cc1cc(-c2ccnc(Cl)c2)cc(C(=O)Nc2ccn(C)n2)n1 [Example 153, 2′-Chloro-6-methyl-[4,4′]bipyridinyl-2-carboxylic acid (1-methyl-1H-pyrazol-3-yl)-amide]
79 nM |  | Cc1cc(-c2cc(F)cc(F)c2)cc(C(=O)Nc2nccc(Cl)n2)n1 [Example 167, 4-(3,5-Difluorophenyl)-6-methyl-pyridine-2-carboxylic acid (4-chloro-pyrimidin-2-yl)-amide]
929 nM |  | Cc1cc(-c2cc(F)cc(F)c2)cc(C(=O)Nc2ncc(C)s2)n1 [Example 86, 4-(3,5-Difluorophenyl)-6-methyl-pyridine-2-carboxylic acid (5-methyl-thiazol-2-yl)-amide]
30 nM |  | Cc1cc(-c2cc(F)cc(F)c2)cc(C(=O)Nc2ccnc(C#N)c2)n1 [Example 169, 4-(3,5-Difluorophenyl)-6-methyl-pyridine-2-carboxylic acid (2-cyano-pyridin-4-yl)-amide]
81 nM |  | Cc1cc(-c2cc(F)cc(F)c2)cc(C(=O)Nc2ncc(F)s2)n1 [Example 200, 4-(3,5-Difluoro-phenyl)-6-methyl-pyridine-2-carboxylic acid (5-fluoro-thiazol-2-yl)-amide]
620 nM |  | Cc1cc(-c2ccc(F)cc2)cc(C(=O)Nc2ccnc(Cl)c2)n1 [Example 31, 4-(4-Fluoro-phenyl)-6-methyl-pyridine-2-carboxylic acid (2-chloro-pyridin-4-yl)-amide]
